Results: PubChem BioAssay AID1963420 (Molecular Pharmacology Branch, DTP, NCI, 2024)
Several values for one entry are separate records, joined by “and”; a condition that tells them apart may be missing. Equal entries are not always repeated.

System: 494315-158-R-J1-PDC complex spheroid growth, percent test/control
Assay: Anticancer human tumor 494315-158-R-J1-PDC patient-derived soft tissue sarcoma cell line growth inhibition [Asc]
Settings: for viability, T/C: stronger effect = lower value
Outline: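 Tumor cells were grown as multicellular spheroids with stromal HUVEC and mesenchymal stem cells and treated singly or in combination. Concentrations fell in half-log steps from the clinical Cmax, or from 10 microM where none was known.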

[1] = curve of first compound, second compound 0.1 µM
[2] = curve of first compound, second compound 0.316 µM
[3] = curve of first compound, second compound 1 µM
[4] = curve of first compound, second compound 3.16 µM
[5] = curve of first compound, second compound 10 µM
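Further: compound exposure lasted seven days after spheroids formed for three days.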

Question: Which results are given for `CCN1C(C(=O)NC23CCC(C(=O)O)(CC2)CC3)C(c2cccc(Cl)c2F)C2(C(=O)Nc3cc(Cl)ccc32)C12CCCCC2` (stereo not drawn) + Cc1c(S(C)(=O)=O)c(-c2cc(F)cc(N3CCN(c4ccc(NS(=O)(=O)c5ccc(NC(CCN6CCC(C(=O)OCCCP(=O)(O)O)CC6)CSc6ccccc6)c(S(=O)(=O)C(F)(F)F)c5)cc4)CC3)c2)c(-c2ccc(Cl)cc2)n1C(C)C?
Answer: IC50 [1]: > 3000 nM; IC50 [2]: > 3000 nM; IC50 [3]: 1020 nM; IC50 [4]: 71.7 nM; IC50 [5]: > 3000 nM; viability, T/C (second compound 0.1 µM, first compound 0.00949 µM): 80.3%; viability, T/C (second compound 0.1 µM, first compound 0.03 µM): 86.6%; viability, T/C (second compound 0.1 µM, first compound 0.0949 µM): 84.4%; viability, T/C (second compound 0.1 µM, first compound 0.3 µM): 77.4%; viability, T/C (second compound 0.1 µM, first compound 0.949 µM): 77.4%; viability, T/C (second compound 0.1 µM, first compound 3 µM): 67%; viability, T/C (second compound 0.316 µM, first compound 0.00949 µM): 79.1%; viability, T/C (second compound 0.316 µM, first compound 0.03 µM): 74.9%; viability, T/C (second compound 0.316 µM, first compound 0.0949 µM): 64.4%; viability, T/C (second compound 0.316 µM, first compound 0.3 µM): 60.7%; viability, T/C (second compound 0.316 µM, first compound 0.949 µM): 63.3%; viability, T/C (second compound 0.316 µM, first compound 3 µM): 54.3%; viability, T/C (second compound 1 µM, first compound 0.00949 µM): 66%; viability, T/C (second compound 1 µM, first compound 0.03 µM): 66.3%; viability, T/C (second compound 1 µM, first compound 0.0949 µM): 68.8%; viability, T/C (second compound 1 µM, first compound 0.3 µM): 62.8%; viability, T/C (second compound 1 µM, first compound 0.949 µM): 50.8%; viability, T/C (second compound 1 µM, first compound 3 µM): 39.7%; viability, T/C (second compound 3.16 µM, first compound 0.00949 µM): 53.3%; viability, T/C (second compound 3.16 µM, first compound 0.03 µM): 45.1%; viability, T/C (second compound 3.16 µM, first compound 0.0949 µM): 53.8%; viability, T/C (second compound 3.16 µM, first compound 0.3 µM): 46.5%; viability, T/C (second compound 3.16 µM, first compound 0.949 µM): 45.8%; viability, T/C (second compound 3.16 µM, first compound 3 µM): 35.6%; viability, T/C (second compound 10 µM, first compound 0.00949 µM): 83%; viability, T/C (second compound 10 µM, first compound 0.03 µM): 73.3%; viability, T/C (second compound 10 µM, first compound 0.0949 µM): 68.4%; viability, T/C (second compound 10 µM, first compound 0.3 µM): 68.5%; viability, T/C (second compound 10 µM, first compound 0.949 µM): 52.8%; viability, T/C (second compound 10 µM, first compound 3 µM): 52.8%

Question: Which results are given for `Cc1c(S(C)(=O)=O)c(-c2cc(F)cc(N3CCN(c4ccc(NS(=O)(=O)c5ccc(NC(CCN6CCC(C(=O)OCCCP(=O)(O)O)CC6)CSc6ccccc6)c(S(=O)(=O)C(F)(F)F)c5)cc4)CC3)c2)c(-c2ccc(Cl)cc2)n1C(C)C` (stereo not drawn)?
Answer: viability, T/C (compound 0.1 µM): 77.8% [middle of 14 runs]; viability, T/C (compound 0.316 µM): 71.6% [middle of 14 runs]; viability, T/C (compound 1 µM): 65% [middle of 14 runs]; viability, T/C (compound 3.16 µM): 52.8% [middle of 14 runs]; viability, T/C (compound 10 µM): 73.2% [middle of 14 runs]; IC50 (compound alone, run of 09/27/2022): > 10000 nM

Question: Which results are given for `CCN1CCN(Cc2ccc(Nc3ncc(F)c(-c4cc(F)c5nc(C)n(C(C)C)c5c4)n3)nc2)CC1` + CCN1C(C(=O)NC23CCC(C(=O)O)(CC2)CC3)C(c2cccc(Cl)c2F)C2(C(=O)Nc3cc(Cl)ccc32)C12CCCCC2?
Answer: IC50 (curve of first compound, second compound 0.03 µM): > 1000 nM; IC50 (curve of first compound, second compound 0.0949 µM): > 1000 nM; IC50 (curve of first compound, second compound 0.3 µM): > 1000 nM; IC50 (curve of first compound, second compound 0.949 µM): > 1000 nM; IC50 (curve of first compound, second compound 3 µM): > 1000 nM; viability, T/C (second compound 0.03 µM, first compound 0.00316 µM): 109%; viability, T/C (second compound 0.03 µM, first compound 0.01 µM): 108%; viability, T/C (second compound 0.03 µM, first compound 0.0316 µM): 94.2%; viability, T/C (second compound 0.03 µM, first compound 0.1 µM): 112%; viability, T/C (second compound 0.03 µM, first compound 0.316 µM): 105%; viability, T/C (second compound 0.03 µM, first compound 1 µM): 97.2%; viability, T/C (second compound 0.0949 µM, first compound 0.00316 µM): 105%; viability, T/C (second compound 0.0949 µM, first compound 0.01 µM): 112%; viability, T/C (second compound 0.0949 µM, first compound 0.0316 µM): 121%; viability, T/C (second compound 0.0949 µM, first compound 0.1 µM): 121%; viability, T/C (second compound 0.0949 µM, first compound 0.316 µM): 106%; viability, T/C (second compound 0.0949 µM, first compound 1 µM): 103%; viability, T/C (second compound 0.3 µM, first compound 0.00316 µM): 107%; viability, T/C (second compound 0.3 µM, first compound 0.01 µM): 104%; viability, T/C (second compound 0.3 µM, first compound 0.0316 µM): 114%; viability, T/C (second compound 0.3 µM, first compound 0.1 µM): 106%; viability, T/C (second compound 0.3 µM, first compound 0.316 µM): 112%; viability, T/C (second compound 0.3 µM, first compound 1 µM): 97.2%; viability, T/C (second compound 0.949 µM, first compound 0.00316 µM): 111%; viability, T/C (second compound 0.949 µM, first compound 0.01 µM): 117%; viability, T/C (second compound 0.949 µM, first compound 0.0316 µM): 100%; viability, T/C (second compound 0.949 µM, first compound 0.1 µM): 99.2%; viability, T/C (second compound 0.949 µM, first compound 0.316 µM): 97.1%; viability, T/C (second compound 0.949 µM, first compound 1 µM): 88.3%; viability, T/C (second compound 3 µM, first compound 0.00316 µM): 110%; viability, T/C (second compound 3 µM, first compound 0.01 µM): 112%; viability, T/C (second compound 3 µM, first compound 0.0316 µM): 89.1%; viability, T/C (second compound 3 µM, first compound 0.1 µM): 114%; viability, T/C (second compound 3 µM, first compound 0.316 µM): 100%; viability, T/C (second compound 3 µM, first compound 1 µM): 85%

Question: For `CNC(C)C(=O)NC1CN(S(=O)(=O)c2cccc(S(=O)(=O)N3CCC4CCC(C(=O)NC(c5ccccc5)c5ccccc5)N4C(=O)C(NC(=O)C(C)NC)C3)c2)CCC2CCC(C(=O)NC(c3ccccc3)c3ccccc3)N2C1=O` (stereo not drawn), which viability, T/C (compound 0.00316 µM) is on record?
Answer: 79% and 74.7%

Question: What about the viability, T/C (compound 0.01 µM) of the same compound?
Answer: 69.1% [middle of 15 runs]

Question: What about the viability, T/C (compound 0.0316 µM) of the same compound?
Answer: 58.5% [middle of 15 runs]

Question: And the viability, T/C (compound 0.1 µM)?
Answer: 51.9% [middle of 15 runs]

Question: What about the viability, T/C (compound 0.316 µM) of the same compound?
Answer: 45% [middle of 15 runs]

Question: What about the viability, T/C (compound 1 µM) of the same compound?
Answer: 39.2% [middle of 15 runs]

Question: What about the IC50 (curve of compound) of the same compound?
Answer: 46.1 nM and 28.9 nM

Question: Which IC50 [1] does the source give for `C=CC(=O)N1CCN(c2nc(=O)n(-c3c(C)ccnc3C(C)C)c3nc(-c4c(O)cccc4F)c(F)cc23)C(C)C1` (stereo not drawn) + Cc1c(S(C)(=O)=O)c(-c2cc(F)cc(N3CCN(c4ccc(NS(=O)(=O)c5ccc(NC(CCN6CCC(C(=O)OCCCP(=O)(O)O)CC6)CSc6ccccc6)c(S(=O)(=O)C(F)(F)F)c5)cc4)CC3)c2)c(-c2ccc(Cl)cc2)n1C(C)C here?
Answer: > 10000 nM

Question: What about the IC50 [2] of the same compound?
Answer: > 10000 nM

Question: And the IC50 [3]?
Answer: > 10000 nM

Question: What about the IC50 [4] of the same compound?
Answer: > 10000 nM

Question: What about the IC50 [5] of the same compound?
Answer: > 10000 nM

Question: And the viability, T/C (second compound 0.1 µM, first compound 0.0316 µM)?
Answer: 101%

Question: And the viability, T/C (second compound 0.1 µM, first compound 0.1 µM)?
Answer: 84.5%

Question: And the viability, T/C (second compound 0.1 µM, first compound 0.316 µM)?
Answer: 88.9%

Question: And the viability, T/C (second compound 0.1 µM, first compound 1 µM)?
Answer: 100%

Question: And the viability, T/C (second compound 0.1 µM, first compound 3.16 µM)?
Answer: 108%

Question: And the viability, T/C (second compound 0.1 µM, first compound 10 µM)?
Answer: 91.7%

Question: And the viability, T/C (second compound 0.316 µM, first compound 0.0316 µM)?
Answer: 67.4%

Question: What about the viability, T/C (second compound 0.316 µM, first compound 0.1 µM) of the same compound?
Answer: 75.3%

Question: What about the viability, T/C (second compound 0.316 µM, first compound 0.316 µM) of the same compound?
Answer: 72.2%

Question: What about the viability, T/C (second compound 0.316 µM, first compound 1 µM) of the same compound?
Answer: 89.9%

Question: And the viability, T/C (second compound 0.316 µM, first compound 3.16 µM)?
Answer: 80%

Question: And the viability, T/C (second compound 0.316 µM, first compound 10 µM)?
Answer: 78.3%

Question: And the viability, T/C (second compound 1 µM, first compound 0.0316 µM)?
Answer: 86.4%

Question: And the viability, T/C (second compound 1 µM, first compound 0.1 µM)?
Answer: 63.5%

Question: And the viability, T/C (second compound 1 µM, first compound 0.316 µM)?
Answer: 74.1%

Question: What about the viability, T/C (second compound 1 µM, first compound 1 µM) of the same compound?
Answer: 79.3%

Question: And the viability, T/C (second compound 1 µM, first compound 3.16 µM)?
Answer: 84%

Question: And the viability, T/C (second compound 1 µM, first compound 10 µM)?
Answer: 66%

Question: What about the viability, T/C (second compound 3.16 µM, first compound 0.0316 µM) of the same compound?
Answer: 61.1%

Question: And the viability, T/C (second compound 3.16 µM, first compound 0.1 µM)?
Answer: 60.2%

Question: What about the viability, T/C (second compound 3.16 µM, first compound 0.316 µM) of the same compound?
Answer: 69.5%

Question: What about the viability, T/C (second compound 3.16 µM, first compound 1 µM) of the same compound?
Answer: 79.9%

Question: What about the viability, T/C (second compound 3.16 µM, first compound 3.16 µM) of the same compound?
Answer: 81.4%

Question: And the viability, T/C (second compound 3.16 µM, first compound 10 µM)?
Answer: 60.9%

Question: What about the viability, T/C (second compound 10 µM, first compound 0.0316 µM) of the same compound?
Answer: 81.3%

Question: What about the viability, T/C (second compound 10 µM, first compound 0.1 µM) of the same compound?
Answer: 84.5%

Question: What about the viability, T/C (second compound 10 µM, first compound 0.316 µM) of the same compound?
Answer: 92.8%

Question: And the viability, T/C (second compound 10 µM, first compound 1 µM)?
Answer: 90.1%

Question: What about the viability, T/C (second compound 10 µM, first compound 3.16 µM) of the same compound?
Answer: 98.5%

Question: What about the viability, T/C (second compound 10 µM, first compound 10 µM) of the same compound?
Answer: 67.3%
